# Read-outs that look alike come from different tables or passages of the source.
# Assays:
# [1] = tested on: TM93-C1088 (atovaquone and CQ resistant); design: method as in ref S2; details: [3H]-hypoxanthine assay; ref S2; read-out: Antimalarial activities IC50 TM93-C1088; cited from earlier work
# [2] = tested on: Chinese hamster ovary (CHO) cells; design: method as in PMID 29866868, PMID 31998692; details: other cell lines including CHO cells; read-out: EC50 cytotoxicity; cited from earlier work
# 7G8 (CQ resistant) = tested on: 7G8 (CQ resistant); design: method as in ref S2; details: [3H]-hypoxanthine assay; ref S2; read-out: Antimalarial activities IC50 7G8; cited from earlier work
# [3] = tested on: asexual blood stages of Pf W2 (drug resistant); design: method as in PMID 29866868, PMID 31998692; details: cited from earlier work; for IC50: asexual blood stage Pf W2, multidrug resistant, SYBR Green I, ± SEM
# [4] = tested on: P. falciparum asexual blood stage artemisinin-resistant clone ARC08-22 (4G) carrying the PfKI3 C580Y mutation; design: method as in ref S3; details: ref S3, cited from earlier work
# [5] = tested on: asexual blood stages of Pf NF54 (drug sensitive); design: method as in PMID 29866868, PMID 31998692; details: asexual blood stage Pf NF54, CQ sensitive; SYBR Green I; ± SEM; cited from earlier work
# [6] = tested on: fetal rat brain stem cells; details: ref S4 (24), cited from earlier work
# [7] = tested on: early-stage (EG) Pf NF54 gametocytes; design: method as in PMID 29866868; details: early-stage gametocytes >95% stages II-III; 48 h incubation; ± SEM; cited from earlier work
# W2 (CQ resistant) = tested on: W2 (CQ resistant); design: method as in ref S2; details: [3H]-hypoxanthine assay; ref S2; read-out: Antimalarial activities IC50 W2; cited from earlier work
# [8] = tested on: asexual blood stages of Pf K1 (drug resistant); design: method as in PMID 29866868, PMID 31998692; details: cited from earlier work; for IC50: asexual blood stage Pf K1, multidrug resistant, SYBR Green I, ± SEM
# [9] = tested on: TM91-C235 (CQ and MFQ resistant); design: method as in ref S2; details: [3H]-hypoxanthine assay; ref S2; read-out: Antimalarial activities IC50 TM91-C235; cited from earlier work
# [10] = tested on: P. falciparum asexual blood stage artemisinin-resistant clone PL08-009 (5C) carrying the PfKI3 C580Y mutation; design: method as in ref S3; details: ref S3, cited from earlier work
# [11] = tested on: late-stage (LG) Pf NF54 gametocytes; design: method as in PMID 29866868; details: late-stage gametocytes >90% stages IV-V; 48 h incubation; ± SEM; cited from earlier work
# P. falciparum W2 = tested on: P. falciparum W2; design: method as in ref S3; details: [3H]-hypoxanthine assay; ref S3; cited from earlier work
# TM-C2B = tested on: TM-C2B; design: method as in ref S2; details: [3H]-hypoxanthine assay; ref S2; read-out: Antimalarial activities IC50 TM-C2B; cited from earlier work
# D6 (CQ sensitive) = tested on: D6 (CQ sensitive); design: method as in ref S2; details: [3H]-hypoxanthine assay; ref S2; read-out: Antimalarial activities IC50 D6; cited from earlier work
# [12] = Cytotoxicity (LDH assay) against HepG2 cells; type: cell-based; details: human
# Method: Cytotoxicity against mammalian hepatocellular carcinoma cells (HepG2 cells) was determined using the lactate dehydrogenase assay (LDH, Biovision Inc., Milpitas, CA, USA). […] Compound working solutions were prepared from 10 mM stock solutions (100% DMSO) in complete DMEM to a final DMSO (Sigma-Aldrich) conc. of <0.1% (vol/vol). […] Data analysis was performed using GraphPad Prism (version 6) software.
# HepG2 = details: cited from earlier work; for SI = EC50 HepG2/IC50 P. berghei sporozoites: ref S3
# P. berghei sporozoites = details: cited from earlier work; for Maximum inhibition % P. berghei sporozoites: ref S3; for IC50: luciferase-expressing P. berghei ANKA GFP-Luc-SMcon sporozoites in HepG2 cells, 48 h, ± SD, ref S3 (7)
# [13] = design: method as in PMID 34097488; details: cited from earlier work
# [14] = tested on: type II tachyzoites (PRU-Luc-GFP); details: sc 10 mg/kg/d for 8 days; cited from earlier work
# [15] = tested on: asexual blood stages of Pf NF54 (drug sensitive); experiment: SYBR Green I proliferation assay, asexual blood stages, Pf NF54; type: cell-based, Plasmodium falciparum
# Method: (§1) Dose response curves are in Figures S1a–c and S2a–c in the Supplementary Material 1. Table 1 also includes the historical values for artemiside and artemisone obtained using the same assay.
# (§2) All other assay conditions are as previously described. Compound working solutions were prepared from a 10 mM stock solution in 100% (vol/vol) dimethyl sulfoxide (DMSO, Sigma-Aldrich) in supplemented RPMI 1640 medium containing AlbuMAX II with a final DMSO concentration of 0.1% (vol/vol), previously determined to be nontoxic to blood stage asexual parasites and gametocytes. The dose-responses of the amino-artemisinins were assayed using a 2-fold serial drug dilution on in vitro 95% ring-stage parasites at 37 °C under 90% N2, 5% CO2, and 5% O2 atmospheric conditions, detecting SYBR green I fluorescence as the proliferative marker following a 96 h drug treatment (1% parasitemia and 1% hematocrit) using a GloMaxR-Multi+ Detection System (Promega). No drug washout steps were performed during drug incubation periods prior to the assays. Activity against the Pf drug-sensitive NF54 strain and the drug-resistant K1 (resistant to CQ, quinine, pyrimethamine, and cycloguanil) and W2 (resistant to CQ, quinine, pyrimethamine, and cycloguanil) strains was evaluated. Data analysis was performed using GraphPad Prism (version 6), intra-assay variability was monitored with Z-factors, and acceptable interassay reproducibility was determined from the percent coefficient of variation (CV).
# [16] = tested on: early-stage (EG) Pf NF54 gametocytes; experiment: Luciferase assay, early-stage gametocytes; type: cell-based, Plasmodium falciparum; details: Plasmodium falciparum, NF54, 48 h, early-stage gametocytes >95% stages II-III; 48 h incubation; ± SEM
# Method: (§3) For screening artemisox and M1 against early- (EG) and late-stage (LG) gametocytes, the luciferase assay with transgenic NF54-pfs16-GFP-Luc and NF54-Mal8p1.16-GFP-Luc parasite lines was used. With this assay, stage-specificity of gametocytocidal action was established (Table 2). Dose-response curves are in Figures S1d,e and S2d in the Supplementary Material 1. […] As was observed previously for artemisone and artemiside, dose responses for artemisox and M1 could not be obtained at 48 h against late-stage gametocytes.
# (§4) The same reference compounds with the exception of CQ were used for the early- and late-stage gametocyte assays. Gametocytocidal activity was determined using the transgenic NF54-pfs16-GFP-Luc and NF54-Mal8p1.16-GFP-Luc reporter lines. Compounds were initially screened for activity at a fixed drug concentration of 1 µM, with dose responses subsequently determined using 2-fold serial drug dilutions for 48 h against early-stage gametocytes (day 5 post-induction population, ≥95% stages II–III) and 10-fold serial drug dilutions for 48 h or 72 h against late-stage gametocytes (day 10 post-induction population, ≥90% late-stage [stages IV–V]) (2 to 3% gametocytemia, 2% hematocrit) at 37 °C under 90% N2, 5% CO2, and 5% O2 [6]. No drug washout steps were performed during the drug incubation periods prior to the assays. In all cases, an interference assay was run in parallel to eliminate the possibility of false positives arising through compound interference with the luciferase readout.
# [17] = design: method as in PMID 34097488; details: cited from earlier work; remark: listed apart in the source
# [18] = tested on: asexual blood stages of Pf K1 (drug resistant); experiment: SYBR Green I proliferation assay, asexual blood stages, Pf K1; type: cell-based, Plasmodium falciparum
# Method: as §1, §2
# [19] = tested on: asexual blood stages of Pf W2 (drug resistant); experiment: SYBR Green I proliferation assay, asexual blood stages, Pf W2; type: cell-based, Plasmodium falciparum
# Method: as §1, §2
# [20] = tested on: late-stage (LG) Pf NF54 gametocytes; experiment: Luciferase assay, late-stage gametocytes; type: cell-based, Plasmodium falciparum; details: fixed dose of 1 µM, 48 h incubation
# Method: as §3, §4
# [21] = effect on the cytoskeleton on day 7
smiles,measurement,setting,value
"C[C@H]1[C@@H](O)O[C@@H]2O[C@@]3(C)CC[C@H]4[C@H](C)CC[C@@H]1[C@@]24OO3 [DHA 2, Dihydroartemisinin]",IC50,[1],1.4 ± 0.4 nM
same,EC50,[2],25.2 µM
same,IC50,7G8 (CQ resistant),1.3 ± 0.2 nM
same,IC50,[3],1.74 ± 0.22 nM
same,RI = IC50 W2/IC50 NF54,[3],0.7
same,IC50,"[4]; 48 h life cycle, PfKI3 C580Y",6.68 nM
same,IC90,"[4]; 48 h life cycle, PfKI3 C580Y",15.4 nM
same,RI = IC50 for ARC08-22(4G)/IC50 for W2,[4],1.5
same,IC50,[5],2.51 ± 0.19 nM
same,ATP IC50,[6]; ATP levels 1 day after initial administration,0.08 µg/mL
same,Neurofilaments IC50,[6]; [21],0.01 µg/mL
same,Neurofilaments NOEC,[6]; [21],< 0.001 µg/mL
same,Viability IC50,"[6]; neuron-specific enolase activity, 7 days exposure",5.0 µg/mL
same,IC50,[7],43 ± 3.9 nM
same,IC50,W2 (CQ resistant),2.2 ± 0.8 nM
same,IC50,[8],1.51 ± 0.33 nM
same,RI (resistance index) = IC50 K1/IC50 NF54,[8],0.6
same,IC50,[9],2.3 ± 0.7 nM
same,IC50,"[10]; 36 h life cycle, PfKI3 C580Y",6.41 nM
same,IC90,"[10]; 36 h life cycle, PfKI3 C580Y",10.7 nM
same,RI = IC50 for PL08-09 (5C)/IC50 for W2,[10],1.4
same,IC50,[11],33.7 ± 1.98 nM
same,IC50,P. falciparum W2,4.58 nM
same,IC90,P. falciparum W2,10.3 nM
same,IC50,TM-C2B,2 ± 0.7 nM
same,IC50,D6 (CQ sensitive),1.7 ± 0.4 nM
CCN(CC)CCCC(C)Nc1ccnc2cc(Cl)ccc12 (stereo not shown) [Chloroquine],IC50,[1],360 ± 38 nM
same,IC50,7G8 (CQ resistant),84 ± 18 nM
same,IC50,[5],10 ± 3 nM
same,IC50 at 24 h,[12],58.4 µM
same,IC50,W2 (CQ resistant),195 ± 70 nM
same,IC50,[8],154 ± 14 nM
same,IC50,[9],70 ± 12 nM
same,IC50,TM-C2B,95 ± 23 nM
same,IC50,D6 (CQ sensitive),16 ± 2 nM
"COc1ccc(C[C@H](N)C(=O)N[C@H]2[C@@H](O)[C@H](n3cnc4c(N(C)C)ncnc43)O[C@@H]2CO)cc1 [Puromycin, reference compound]",EC50,HepG2,117 nM
same,SI = EC50 HepG2/IC50 P. berghei sporozoites,HepG2,5.15
same,Maximum inhibition % P. berghei sporozoites,P. berghei sporozoites; at 5 µM,110±4.24%
same,IC50,P. berghei sporozoites,22.7 ± 4.53 nM
"CO[C@H]1O[C@@H]2O[C@@]3(C)CC[C@H]4[C@H](C)CC[C@@H]([C@H]1C)[C@@]24OO3 [Artemether 3, Artemether]",IC50,[3],7 ± 1 nM
same,RI = IC50 W2/IC50 NF54,[3],3.8
same,IC50,[5],1.86 ± 0.17 nM
same,IC50,[7],37.7 ± 2 nM
same,IC50,[8],9 ± 2 nM
same,RI (resistance index) = IC50 K1/IC50 NF54,[8],4.8
same,F% (oral bioavailability),[13],2%
same,Cmax,"[13]; oral administration, same dose, same murine model",600 nM
same,IC50,[11],136 ± 85.9 nM
same,Maximum inhibition % P. berghei sporozoites,P. berghei sporozoites; at 10 µM,49.4%
same,IC50,P. berghei sporozoites,> 104 nM
same,IC50,P. berghei sporozoites; listed as artemether 3,> 10000 nM
OC(c1cc(C(F)(F)F)nc2c(C(F)(F)F)cccc12)C1CCCCN1 (stereo not shown) [Mefloquine],IC50,[1],16 ± 5 nM
same,IC50,7G8 (CQ resistant),5.4 ± 1.7 nM
same,IC50,[9],107 ± 41 nM
same,IC50,TM-C2B,130 ± 51 nM
"C[C@@H]1CC[C@H]2[C@@H](C)C(=O)O[C@@H]3O[C@@]4(C)CC[C@@H]1[C@]32OO4 [Artemisinin 1, Artemisinin, reference compound]","mice surviving the infection, acute phase",[14],all mice treated with artemisinin succumbed to infection
"C[C@H]1[C@H](N2C=CS(=O)(=O)CC2)O[C@@H]2O[C@@]3(C)CC[C@H]4[C@H](C)CC[C@@H]1[C@@]24OO3 [M1 8, M1]",IC50,[1],2.5 ± 0.4 nM
same,IC50,7G8 (CQ resistant),2.6 ± 0.8 nM
same,IC50,"[15]; Plasmodium falciparum, NF54, 96 h, asexual blood stage Pf NF54, CQ sensitive, SYBR Green I, 96 h, ± SEM, read-out: IC50 NF54",2.63 ± 0.24 nM
same,IC50,"[15]; Plasmodium falciparum, NF54, summary over NF54, K1 and W2 strains, read-out: IC50 against asexual Pf blood stage parasites",~2 nM
same,IC50,"[15]; summary over NF54, K1 and W2 strains, read-out: IC50 against asexual Pf blood stage parasites",1.5 to 2.6 nM
same,IC50,[16],13.4 ± 2.7 nM
same,IC50 at 24 h,[12]; HepG2 cells (hepatocellular carcinoma),> 50 µM
same,fold greater human microsomal half-life than artemisone,[17],> 15 fold
same,fold greater human microsomal half-life than artemisone,[17]; listed as M1,≥ 15 fold
same,IC50,W2 (CQ resistant),6.6 ± 0.4 nM
same,RI (resistance index) = IC50 K1/IC50 NF54,[18],0.57
same,IC50,"[18]; Plasmodium falciparum, asexual blood stage Pf K1, multidrug resistant, SYBR Green I, 96 h, ± SEM",1.5 ± 0.23 nM
same,RI = IC50 W2/IC50 NF54,[19],0.86
same,IC50,"[19]; Plasmodium falciparum, asexual blood stage Pf W2, multidrug resistant, SYBR Green I, 96 h, ± SEM",2.26 ± 0.08 nM
same,IC50,[9],5 ± 0.6 nM
same,inhibition of LG viability,[20],> 90%
same,IC50,TM-C2B,8.6 ± 8.2 nM
same,IC50,D6 (CQ sensitive),4.7 ± 0.2 nM
CN(C)c1ccc2nc3ccc(=[N+](C)C)cc-3sc2c1 [Methylene Blue],IC50,[5],5 ± 0.8 nM
same,IC50,[7],95 ± 11.3 nM
same,IC50,[11],143 ± 16.7 nM
O=C1C(O)=C([C@H]2CC[C@H](c3ccc(Cl)cc3)CC2)C(=O)c2ccccc21 [Atovaquone],IC50,[1],18800 nM
same,IC50,7G8 (CQ resistant),3.1 ± 0.9 nM
same,EC50,HepG2,> 250 nM
same,SI = EC50 HepG2/IC50 P. berghei sporozoites,HepG2,> 100
same,IC50,[9],2.2 ± 0.7 nM
same,Maximum inhibition % P. berghei sporozoites,P. berghei sporozoites; at 0.5 µM,94.85±2.76%
same,IC50,P. berghei sporozoites,2.52 ± 0.997 nM
same,IC50,TM-C2B,31800 nM
